Test results published in publication PMC3628991, “Synthesis and evaluation of cell-permeable biotinylated PU-H71 derivatives as tumor Hsp90 probes” (Beilstein Journal of Organic Chemistry, 2013).
pEC50, pIC50: −log10 of the molar value. Entries after “also recorded” stand apart in the source; their conditions may differ.

Legend:
[1] = tested on: tumor cell Hsp90 complexes (SKBr3 human breast cancer lysate); assay: Hsp90 fluorescence polarization competition assay (GM-cy3B displacement) in SKBr3 cancer-cell lysate; type: binding; settings: read-out: Affinity for Hsp90 (FP)
From the text: The fraction of tracer bound to Hsp90 was correlated to the mP value and plotted against values of competitor concentrations. The inhibitor concentration at which 50% of bound GM was displaced was obtained by fitting the data.

Hsp90 [2] = assay: Chemical precipitation (affinity purification on streptavidin beads) from K562 cell lysates; set-up: species or system human; settings: high-salt wash, Coomassie stain, 10, 25 and 50 µM
Method: Having identified which compounds were capable or not of permeating live cancer cells, we next wanted to determine whether the chain length was optimal to maintain concomitant binding to Hsp90 and streptavidin, so as to allow for isolation and identification of Hsp90/onco-client complexes from cancer cells. For this purpose, K562 lysates (Figure 2b and c) were incubated with the biotinylated ligands and the complexes captured on streptavidin beads. To test for the probe’s selectivity, pull-downs were performed with increasing concentrations of biotinylated derivatives (10, 25 and 50 µM; Figure 2c). Additionally, affinity-purified complexes were washed with high-salt buffer to remove Hsp90-bound co-chaperones and client proteins (Figure 2b and c).
(§1) Chemical precipitation from cell lysates. K562 cells were sonicated in 20 mM HEPES, pH 7.3, 50 mM KCl, 5 mM MgCl2, 20 mM Na2MoO4, and 0.01% NP40 lysis buffer containing added protease inhibitors. Affinity beads were prepared by addition of the biotinylated probes to the streptavidin agarose resin (40 μL) (Thermo Scientific), which was first washed three times with the lysis buffer. […] The protein extract (500 μg) was then added to the probe-bound beads, and samples were incubated at 4 °C overnight. Following five washes with lysis buffer, the protein isolates were subjected to SDS-PAGE.

K562 cells = assay: Growth inhibition assay (Alamar Blue); type: cell-based; settings: Homo sapiens; Figure 2a; K562, 72 h, Alamar Blue; read-out: IC50 Growth inhibition
From the text: (§2) Having shown that each of the prepared biotinylated molecules retained good affinity for Hsp90, we next evaluated these compounds in two functional read-outs that together measure that the probe has entered a live cancer cell and once inside the cell, has bound to a substantial fraction of oncogenic Hsp90 molecules. Specifically, K562 is a human leukemia cell line dependent on Hsp90 for survival. Thus, in such cells, occupancy of Hsp90’s regulatory pocket by small molecules results in inhibition of its cancer-sheltering properties, leading to cell-growth inhibition associated with degradation of Hsp90-chaperoned onco-proteins. These, such as is the case for Raf-1 in K562 cells, become ubiquitinated and targeted for proteasomal degradation leading to a decrease in their steady-state levels (Figure 2a, Raf-1).
Growth inhibition assay. The effect of compounds on cell growth was evaluated with the Alamar Blue assay. In summary, K562 cells were plated at 20,000 cells/well on Costar 96-well plates. Treatment with the probes added at the indicated concentrations in triplicate wells was performed on the subsequent day and lasted for 72 h. The Alamar Blue reagent resazurin (440 μM stock) was added at the end of the treatment to result in a final concentration of 50 μM. Plates were read 6 h later by using the Analyst GT instrument (Fluorescence intensity mode, excitation 530 nm, emission 580 nm, with 560 nm dichroic mirror). Results were analyzed in SoftMax Pro. The percentage of cell growth inhibition was calculated by comparing fluorescence readings obtained from treated versus control cells, accounting for the initial cell population (time zero). The IC50 was calculated as the drug concentration that inhibits cell growth by 50%.

[3] = tested on: Raf-1 (Hsp90 onco-client) in K562 cells; assay: Raf-1 steady-state levels by Western blot; type: cell-based, human; settings: for Cancer-cell permeability / uptake: judged from Raf-1 degradation and growth inhibition in K562 cells; for Effect on Raf-1 steady-state levels (Raf-1 degradation): K562 cells, 24 h, probes at 5, 10 and 20 µM
From the text: as §2
Western blotting. The K562 cell line was purchased from the American Type Culture Collection (Manassas, VA) and cultured in Roswell Park Memorial Institute (RPMI) supplemented with 10% fetal bovine serum, 1% L-glutamine, 1% penicillin and streptomycin. Cells were plated for 24 h prior to treatment for the indicated times with DMSO (vehicle) or with the indicated compounds. Protein extracts were prepared in 50 mM Tris pH 7.4, 150 mM NaCl and 1% NP-40 lysis buffer. Protein concentrations were measured by using the BCA kit (Pierce) according to the manufacturer's instructions. Protein lysates (50 μg) were resolved by SDS-PAGE, transferred onto nitrocellulose membrane and incubated with an anti-Raf-1 antibody from rabbit (1:500, sc-133, Santa Cruz) or anti-β-actin from mouse (1:2,500, A1978, Sigma-Aldrich). Membranes were then incubated with the corresponding peroxidase-conjugated secondary antibody (1:3,000 dilution) and visualized by the ECL detection reagent (Amersham).

[4] = tested on: Hsp90 and Hsp90/Raf-1 complexes; assay: Chemical precipitation (affinity purification on streptavidin beads) from live K562 cells; type: cell-based, human; settings: for Isolation of Hsp90 from live K562 cells (band at 90 kDa, Coomassie): live K562 cells incubated 4 h, then permeabilized, streptavidin beads; for Isolation of Hsp90 in complex with onco-client protein Raf-1: live K562 cells, Coomassie and Raf-1 immunoblot
Method: To test for the probes’ ability to isolate Hsp90 in secondary and tertiary complexes, such as those containing onco-client proteins, affinity purifications were also performed from live K562 cancer cells (Figure 2d). In such a case, the biotinylated tool is added to live cells where the compound binds to Hsp90 in an onco-client-bound conformation, locking and preserving the endogenous Hsp90/protein complexes throughout the subsequent experimental steps (i.e., permeabilization). In contrast, when adding a biotinylated tool to cell homogenates, one may encounter two potential limitations. First, due to the dynamic nature of the Hsp90/client protein interactions, the endogenous complexes may be lost during the homogenization process and thus, pull-downs from homogenates may miss important interactors. Second, during homogenization, certain proteins may lose their well-regulated conformation and potentially aggregate. Such misfolded proteins are prone to be captured by chaperones resulting in “false positives” (i.e., nonendogenous Hsp90 client proteins). False positives increase the “background” on the affinity resin, and the higher the background, the poorer the identification of relevant endogenous Hsp90 complexes will be. Therefore, while it is true that following the addition of the biotinylated tool to cells, these are permeabilized or fixed/permeabilized and thus no longer alive, the capture of the oncogenic Hsp90 complexes takes place in the live cell.
Consequently, in live-cell experiments, cells were first incubated with the biotinylated PU-H71 derivatives to trap and maintain the onco-client complexed to Hsp90. Next, cells were ruptured into a physiological buffer containing molybdate. The purpose of this step is to release the proteins from the cell yet maintain the Hsp90/onco-client protein complexes intact. Following capture of these complexes on the streptavidin beads, complexes were applied to a denaturing gel, then probed by both Coomassie stain (Figure 2d, top panel) and immunoblot (Figure 2d, bottom panel Raf-1 blot).
Chemical precipitation from cells. K562 cells were treated with the indicated compounds for 4 h, after which cells were collected and washed three times with PBS. Protein extracts were prepared by sonicating cells in 20 mM HEPES, pH 7.3, 50 mM KCl, 5 mM MgCl2, 20 mM Na2MoO4, 0.01% NP40 lysis buffer. Streptavidin agarose beads (40 μL) (Thermo Scientific) were washed three times with the lysis buffer and added to 500 μg of the total cellular protein extract diluted in lysis buffer to a final volume of 120 μL. Samples were incubated at 4 °C for 1 h, washed five times with the lysis buffer (or high salt buffer containing 1 M NaCl added to the lysis buffer) and applied to SDS-PAGE. Gels were stained with Coomassie blue (BioRad) according to the manufacturer's instructions.

Hsp90 [5] = assay: Affinity for Hsp90 paralogues: cytosolic Hsp90; type: binding; settings: paralogue comparison
Grp94 = Grp94 (Homo sapiens, UniProt P14625); assay: Affinity for Hsp90 paralogues: Grp94; type: binding; settings: paralogue comparison
Sequence of Grp94 (P14625 22-803, species assumed): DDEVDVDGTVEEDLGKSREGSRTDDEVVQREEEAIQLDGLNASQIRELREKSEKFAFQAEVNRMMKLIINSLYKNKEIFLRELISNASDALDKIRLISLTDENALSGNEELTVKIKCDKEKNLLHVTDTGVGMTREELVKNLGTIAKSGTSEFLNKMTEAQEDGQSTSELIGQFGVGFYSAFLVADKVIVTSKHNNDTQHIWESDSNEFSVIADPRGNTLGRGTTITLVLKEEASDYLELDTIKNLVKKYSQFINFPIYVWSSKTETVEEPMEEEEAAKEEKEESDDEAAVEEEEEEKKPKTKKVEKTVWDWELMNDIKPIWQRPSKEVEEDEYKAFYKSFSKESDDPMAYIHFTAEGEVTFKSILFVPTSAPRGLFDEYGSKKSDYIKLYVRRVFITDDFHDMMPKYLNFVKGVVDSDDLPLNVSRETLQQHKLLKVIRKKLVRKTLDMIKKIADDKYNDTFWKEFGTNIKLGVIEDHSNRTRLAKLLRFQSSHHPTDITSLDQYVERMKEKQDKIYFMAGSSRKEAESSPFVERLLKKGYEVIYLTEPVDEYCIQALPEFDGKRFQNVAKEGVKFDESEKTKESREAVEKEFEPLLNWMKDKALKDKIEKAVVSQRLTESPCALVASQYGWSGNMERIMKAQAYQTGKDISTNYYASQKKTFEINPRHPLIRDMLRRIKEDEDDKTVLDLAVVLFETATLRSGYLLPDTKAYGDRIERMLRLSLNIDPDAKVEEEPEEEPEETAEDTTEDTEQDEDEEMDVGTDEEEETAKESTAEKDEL

[6] = tested on: cytosolic Hsp90 versus Grp94; assay: Paralogue selectivity of affinity purification from K562 lysates (Western blot); set-up: species or system human; settings: overnight, probes 50 µM
Method: as §1

| Structure (SMILES) | pEC50 [1] | Isolation of Hsp90 from K562 lysates on streptavidin beads (Hsp90 [2]) | pIC50 (K562 cells) | Cancer-cell permeability / uptake [3] | Isolation of Hsp90 from live K562 cells (band at 90 kDa, Coomassie) [4] | Effect on Raf-1 steady-state levels (Raf-1 degradation) [3] | Affinity for Hsp90 (Hsp90 [5]) | Affinity for Grp94 (Grp94) | Isolation of Hsp90 in complex with onco-client protein Raf-1 [4] | Preference in affinity purification of cytosolic Hsp90 over Grp94 [6] |
| --- | --- | --- | --- | --- | --- | --- | --- | --- | --- | --- |
| NCCCn1c(Sc2cc3c(cc2I)OCO3)nc2c(N)ncnc21 [1b] | 7.59 |  |  |  |  |  |  |  |  |  |
| Nc1ncnc2c1nc(Sc1cc3c(cc1I)OCO3)n2CCCNCCOCCOCCOCCNC(=O)CCCC[C@@H]1SC[C@@H]2NC(=O)N[C@@H]21 [2a] |  | modest probe for affinity purifications | 5.30 | poor cancer-cell permeability |  |  |  |  |  |  |
| CC(C)N(CCCn1c(Sc2cc3c(cc2I)OCO3)nc2c(N)ncnc21)C(=O)CCCC[C@@H]1SC[C@@H]2NC(=O)N[C@@H]21 [2b] |  | unable to affinity purify Hsp90 | 5.58 |  | faint band or no band at 90 kDa | almost complete Raf-1 degradation |  |  |  |  |
| Nc1ncnc2c1nc(Sc1cc3c(cc1I)OCO3)n2CCCNC(=O)CCCC[C@@H]1SC[C@@H]2NC(=O)N[C@@H]21 [2c] |  | unable to affinity purify Hsp90 | 6.60 |  | faint band or no band at 90 kDa | almost complete Raf-1 degradation |  |  |  |  |
| CC(C)N(CCCn1c(Sc2cc3c(cc2I)OCO3)nc2c(N)ncnc21)C(=O)CCCCCNC(=O)CCCC[C@@H]1SC[C@@H]2NC(=O)N[C@@H]21 [2d] |  |  | 5.66 |  | faint band or no band at 90 kDa | almost complete Raf-1 degradation |  |  |  |  |
| Nc1ncnc2c1nc(Sc1cc3c(cc1I)OCO3)n2CCCNC(=O)CCCCCNC(=O)CCCC[C@@H]1SC[C@@H]2NC(=O)N[C@@H]21 [2e] |  | unable to affinity purify Hsp90 | 5.87 |  | faint band or no band at 90 kDa | almost complete Raf-1 degradation |  |  |  |  |
| CC(C)N(CCCn1c(Sc2cc3c(cc2I)OCO3)nc2c(N)ncnc21)C(=O)CCCCCNC(=O)CCCCCNC(=O)CCCC[C@@H]1SC[C@@H]2NC(=O)N[C@@H]21 [2f] |  | isolated substantial amounts of Hsp90 | 5.30 |  |  | failed to exhibit such properties; also recorded: to some degree | 98 nM | 210 nM | Most efficient | substantial preference |
| Nc1ncnc2c1nc(Sc1cc3c(cc1I)OCO3)n2CCCNC(=O)CCCCCNC(=O)CCCCCNC(=O)CCCC[C@@H]1SC[C@@H]2NC(=O)N[C@@H]21 [2g] |  | isolated substantial amounts of Hsp90 | 5.95 | substantially taken up by the cancer cell; also recorded: good permeability |  | almost complete Raf-1 degradation | 45 nM | 451 nM | Most efficient | substantial preference |
| CC(C)N(CCCn1c(Sc2cc3c(cc2I)OCO3)nc2c(N)ncnc21)C(=O)CCOCCOCCOCCOCCNC(=O)CCCC[C@@H]1SC[C@@H]2NC(=O)N[C@@H]21 [2h] |  | isolated substantial amounts of Hsp90 | 5.15 |  |  | failed to exhibit such properties; also recorded: failed to substantially degrade Raf-1 | 137 nM | 313 nM | Most efficient | substantial preference |
| Nc1ncnc2c1nc(Sc1cc3c(cc1I)OCO3)n2CCCNC(=O)CCOCCOCCOCCOCCNC(=O)CCCC[C@@H]1SC[C@@H]2NC(=O)N[C@@H]21 [2i] |  | isolated substantial amounts of Hsp90 | 5.07 |  |  | failed to exhibit such properties; also recorded: failed to substantially degrade Raf-1 | 83 nM | 226 nM | Most efficient | substantial preference |
